Assay results taken from US12473295B2, “Substituted straight chain spiro derivatives” (Janssen Pharmaceutica NV, priority 2019, dated 2025).
Structures can show the parent of a compound that is named as a salt.

What was measured:
KO-52 cells = assay: Proliferation assay (spheroid growth, 8 days), KO-52 control cell line; assay type: cell-based, human; conditions: Homo sapiens, […], read-out: spheroid assay_OneTime KO-52 IC50
Summary of the method: (§1)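 200 MOLM14 (MLL-AF9), 200 OCI-AML3 (NPM1c) or 300 KO-52 (MLL wildtype) cells were grown as spheroids in ultra-low attachment wells with compound, 0.3% DMSO, for 8 days at 37 °C. Confluence was imaged on day 8, normalized to DMSO and top-dose reference compound. IC50 came from a variable-slope fit constrained 0–100%.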

[1] = molecular target: menin/MLL (terbium chelate-labeled menin, FITC-MBM1 peptide) (Homo sapiens (Human), UniProt O00255); assay: Menin/MLL homogenous time-resolved fluorescence (HTRF) assay; assay type: binding; conditions: HTRF-30 min incubation IC50, 30 min incubation;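 also: IC50 from percent inhibition of HTRF signal, normalized between wells without competitor and wells with a saturating competitor that displaces FITC-MBM1 from His-tagged menin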
Chain of menin/MLL (terbium chelate-labeled menin, FITC-MBM1 peptide) (O00255 other isoform, or with tags, fused parts or gaps): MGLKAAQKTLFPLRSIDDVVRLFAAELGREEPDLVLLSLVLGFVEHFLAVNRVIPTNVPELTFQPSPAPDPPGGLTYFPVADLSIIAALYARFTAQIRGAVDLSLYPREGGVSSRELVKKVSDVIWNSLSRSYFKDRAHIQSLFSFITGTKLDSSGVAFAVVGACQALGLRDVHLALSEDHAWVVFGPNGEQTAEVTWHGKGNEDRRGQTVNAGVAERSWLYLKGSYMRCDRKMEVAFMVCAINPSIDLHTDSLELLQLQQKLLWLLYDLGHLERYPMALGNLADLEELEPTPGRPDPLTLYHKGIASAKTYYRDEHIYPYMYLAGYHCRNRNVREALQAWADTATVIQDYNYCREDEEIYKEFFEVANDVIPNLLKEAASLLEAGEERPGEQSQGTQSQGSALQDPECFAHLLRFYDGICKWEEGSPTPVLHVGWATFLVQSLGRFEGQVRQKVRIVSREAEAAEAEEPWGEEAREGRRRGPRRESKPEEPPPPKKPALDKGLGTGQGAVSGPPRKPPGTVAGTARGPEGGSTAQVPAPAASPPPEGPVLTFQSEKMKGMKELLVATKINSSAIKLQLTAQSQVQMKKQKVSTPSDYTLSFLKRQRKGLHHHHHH

MOLM14 cells = assay: Proliferation assay (spheroid growth, 8 days), MOLM14; assay type: cell-based, human; conditions: Homo sapiens, MOLM-14, […], MOLM14, 8 days; read-out: spheroid assay_OneTime MOLM14 IC50;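 also: spheroid size read as confluence by live-cell imaging, compounds added at a range of concentrations with 0.3% DMSO, DMSO-treated wells = 0%, highest reference dose = low control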
MEIS1 mRNA = MEIS1 mRNA expression assay (Quantigene Singleplex) in MOLM14 cells; assay type: cell-based, human; conditions: Homo sapiens, MOLM-14, 48 h, 48 hours incubation;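 also: MEIS1 transcript levels read by probe hybridization and normalized to RPL28 mRNA, with IC50 fitted to fold changes across a rising compound concentration series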
OCI-AML3 cells = assay: Proliferation assay (spheroid growth, 8 days), OCI-AML3; assay type: cell-based, human; conditions: Homo sapiens, OCI-AML-3, […], OCI-AML3, 8 days
Summary of the method: as §1

| IC50 [1] [nM] | IC50 (MOLM14 cells) [nM] | IC50 (MEIS1 mRNA) [nM] | IC50 (OCI-AML3 cells) [nM] | SMILES | IC50 (KO-52 cells) [nM] |
| --- | --- | --- | --- | --- | --- |
| 0.15 | 84 | 130 | 360 | CCN(C(=O)c1cc(F)ccc1Oc1nncnc1N1CCC2(C1)CN([C@H](CCCN(C)C(CO)CO)C(C)C)C2)C(C)C [Compound 256, (R)-2-((5(2-(6-((1,3-dihydroxypropan-2-yl)(methyl)amino)-2-methylhexan-3-yl)-2,6-diazaspiro[3.4]octan-6-yl)-1,2,4-triazin-6-yl)oxy)-N-ethyl-5-fluoro-N-isopropylbenzamide fumarate] | > 15000 |
| 0.16 | 46 | 65 | 250 | CCN(C(=O)c1cc(F)ccc1Oc1nncnc1N1CCC2(C1)CN([C@H](CCCN(C)CCO)C(C)C)C2)C(C)C [Compound 259, (R)-N-ethyl-5-fluoro-2-((5-(2-(6-((2-hydroxyethyl)(methyl)amino)-2-methylhexan-3-yl)-2,6-diazaspiro[3.4]octan-6-yl)-1,2,4-triazin-6-yl)oxy)-N-isopropylbenzamide fumarate] | > 15000 |
| 0.24 | 48 | 38 | 90 | CCN(C(=O)c1cc(F)ccc1Oc1nncnc1N1CCC2(C1)CN([C@H](CCCNC[C@@H](O)COC)C(C)C)C2)C(C)C [Compound 281, N-ethyl-5-fluoro-2-((5-(2-((R)-6-(((R)-2-hydroxy-3-methoxypropyl)amino)-2-methylhexan-3-yl)-2,6-diazaspiro[3.4]octan-6-yl)-1,2,4-triazin-6-yl)oxy)-N-isopropylbenzamide formate] | > 15000 |
| 0.054 | 14 | 10 | 46 | CCN(C(=O)c1cc(F)ccc1Oc1nncnc1N1CCC2(C1)CN([C@H](CCCN(C)C[C@@H](O)COC)C(C)C)C2)C(C)C [Compound 283, N-ethyl-5-fluoro-2-((5-(2-((R)-6-(((R)-2-hydroxy-3-methoxypropyl)(methyl)amino)-2-methylhexan-3-yl)-2,6-diazaspiro[3.4]octan-6-yl)-1,2,4-triazin-6-yl)oxy)-N-isopropylbenzamide fumarate] | > 15000 |
| ~0.36 | 23 | 50 | 73 | CCN(C(=O)c1cc(F)ccc1Oc1nncnc1N1CCC2(C1)CN([C@H](CCCNC[C@H](O)COC)C(C)C)C2)C(C)C [Compound 284, N-ethyl-5-fluoro-2-((5-(2-((R)-6-(((S)-2-hydroxy-3-methoxypropyl)amino)-2-methylhexan-3-yl)-2,6-diazaspiro[3.4]octan-6-yl)-1,2,4-triazin-6-yl)oxy)-N-isopropylbenzamide formate] | > 15000 |
| 1.02 | 160 | 270 | 130 | CCN(C(=O)c1cc(F)ccc1Oc1nncnc1N1CCC2(C1)CN([C@H](CCCN(C)C[C@H](O)COC)C(C)C)C2)C(C)C [Compound 285, N-ethyl-5-fluoro-2-((5-(2-((R)-6-(((S)-2-hydroxy-3-methoxypropyl)(methyl)amino)-2-methylhexan-3-yl)-2,6-diazaspiro[3.4]octan-6-yl)-1,2,4-triazin-6-yl)oxy)-N-isopropylbenzamide formate] | > 15000 |
| 0.066 | 36 | 29 | 71 | CCN(C(=O)c1cc(F)ccc1Oc1nncnc1N1CCC2(C1)CN([C@H](CCC(C)N(C)CCOC)C(C)C)C2)C(C)C (stereo partly drawn) [Compound 300, N-ethyl-5-fluoro-N-isopropyl-2-((5-(2-((3R)-6-((2-methoxyethyl)(methyl)amino)-2-methylheptan-3-yl)-2,6-diazaspiro[3.4]octan-6-yl)-1,2,4-triazin-6-yl)oxy)benzamide fumarate] | > 15000 |
| 0.41 | 140 | 150 | 400 | CCN(C(=O)c1cc(F)ccc1Oc1nncnc1N1CCC2(C1)CN(C(CC(C)(O)CN(C)CCOC)C(C)C)C2)C(C)C (centres unmarked) [Compound 382, N-ethyl-5-fluoro-2-((5-(2-(5-hydroxy-6-((2-methoxyethyl)(methyl)amino)-2,5-dimethylhexan-3-yl)-2,6-diazaspiro[3.4]octan-6-yl)-1,2,4-triazin-6-yl)oxy)-N-isopropylbenzamide fumarate] | 11800 |

More lines, now with the values behind:

| SMILES | IC50 [1] [nM] | IC50 (MOLM14 cells) [nM] | IC50 (MEIS1 mRNA) [nM] | IC50 (OCI-AML3 cells) [nM] | IC50 (KO-52 cells) [nM] |
| --- | --- | --- | --- | --- | --- |
| CCN(C(=O)c1cc(F)ccc1Oc1nncnc1N1CCC2(C1)CN([C@H](CCCN(C)CC(C)C(=O)N(C)C)C(C)C)C2)C(C)C (stereo partly drawn) [Compound 181, 2-((5-(2-((3R)-6-((3-(dimethylamino)-2-methyl-3-oxopropyl)(methyl)amino)-2-methylhexan-3-yl)-2,6-diazaspiro[3.4]octan-6-yl)-1,2,4-triazin-6-yl)oxy)-N-ethyl-5-fluoro-N-isopropylbenzamide fumarate] | 0.079 | 23 | 17 | 44 | 14000 |
| CCN(C(=O)c1cc(F)ccc1Oc1nncnc1N1CCC2(C1)CN([C@H](CCCN(C)[C@H](C)CC(=O)NC)C(C)C)C2)C(C)C [Compound 191, N-ethyl-5-fluoro-N-isopropyl-2-((5-(2-((R)-2-methyl-6-(methyl((R)-4-(methylamino)-4-oxobutan-2-yl)amino)hexan-3-yl)-2,6-diazaspiro[3.4]octan-6-yl)-1,2,4-triazin-6-yl)oxy)benzamide fumarate] | 0.28 | 280 | 220 | 560 | > 15000 |
| CCN(C(=O)c1cc(F)ccc1Oc1nncnc1N1CCC2(C1)CN([C@H](CCCN(C)[C@@H](C)CC(=O)NC)C(C)C)C2)C(C)C [Compound 193, N-ethyl-5-fluoro-N-isopropyl-2-((5-(2-((R)-2-methyl-6-(methyl((S)-4-(methylamino)-4-oxobutan-2-yl)amino)hexan-3-yl)-2,6-diazaspiro[3.4]octan-6-yl)-1,2,4-triazin-6-yl)oxy)benzamide fumarate] | ~0.26 | 170 | 120 | 290 | > 15000 |
| CCN(C(=O)c1cc(F)ccc1Oc1nncnc1N1CCC2(C1)CN([C@H](CCCN(C)C[C@@H](C)C(=O)NC)C(C)C)C2)C(C)C [Compound 195, N-ethyl-5-fluoro-N-isopropyl-2-((5-(2-((R)-2-methyl-6-(methyl((R)-2-methyl-3-(methylamino)-3-oxopropyl)amino)hexan-3-yl)-2,6-diazaspiro[3.4]octan-6-yl)-1,2,4-triazin-6-yl)oxy)benzamide fumarate] | ~0.4 | 70 | 56 | 58 | > 15000 |
| CCN(C(=O)c1cc(F)ccc1Oc1nncnc1N1CCC2(C1)CN([C@H](CCCN(C)C[C@H](C)C(=O)NC)C(C)C)C2)C(C)C [Compound 197, N-ethyl-5-fluoro-N-isopropyl-2-((5-(2-((R)-2-methyl-6-(methyl((S)-2-methyl-3-(methylamino)-3-oxopropyl)amino)hexan-3-yl)-2,6-diazaspiro[3.4]octan-6-yl)-1,2,4-triazin-6-yl)oxy)benzamide fumarate] | 0.3 | 45 | 36 | 36 | > 15000 |
